Patent US11866479B2, “HIV antibody derivatives with dual antiviral and immunomodulatory activities from CD4 and GP41” (priority 2016, dated 2024)

What was measured:
HIV-1 strain BaL = test: Neutralization assay (TZM-bl, pseudovirus), BaL isolate; format: cell-based
Procedure: HIV-1 isolates NL4-3, BaL, AC10, SVBP6, SVBP8, SVBP11, SVBP12, SVBP14, SVBP15, SVBP17, SVBP18 and SVBP19 were generated as pseudoviruses using Env expression plasmids and the pSG3 vector. […] Cell-free virus neutralization by the antibody derivatives was tested by a standard TZM-bl based assay. […] Briefly, in a 96-well culture plate, 100 of previously diluted antibody derivatives were preincubated with 50 μL of pseudovirus stock, using 200 TCID50 (tissue culture infectious doses) at 37° C. for one hour. Then, 100 containing 10,000 TZM-bl luciferase-reporter target cells per well were added. Plates were cultured at 37° C. and 5% CO2 for 48 hours. Serial dilutions of the antibody derivatives were tested, from 1000 to 0.1 ng/mL. TZM-bl reporter cells were treated with dextran (Sigma-Aldrich, Saint Louis, Mo., USA) to enhance infectivity. A luciferase substrate, Britelite Plus (PerkinElmer, Inc., Waltham, Mass., USA), was used for the readout. Non-linear fit of neutralization data was calculated using normalized values fitted to a one site inhibition curve with variable Hill slope. All statistical analyses and non-linear fitting were performed using the GraphPad Prism v5.0 software.

HIV-1 strain NL4-3 = test: Neutralization assay (TZM-bl, pseudovirus), NL4-3 isolate; format: cell-based
Procedure: HIV-1 isolates NL4-3, BaL, AC10, SVBP6, SVBP8, SVBP11, SVBP12, SVBP14, SVBP15, SVBP17, SVBP18 and SVBP19 were generated as pseudoviruses using Env expression plasmids and the pSG3 vector. See Sanchez-Palomino S, et al., Vaccine 2011; 29:5250-5259. Cell-free virus neutralization by the antibody derivatives was tested by a standard TZM-bl based assay. See Li, 2005, supra. Briefly, in a 96-well culture plate, 100 of previously diluted antibody derivatives were preincubated with 50 μL of pseudovirus stock, using 200 TCID50 (tissue culture infectious doses) at 37° C. for one hour. Then, 100 containing 10,000 TZM-bl luciferase-reporter target cells per well were added. Plates were cultured at 37° C. and 5% CO2 for 48 hours. […] A luciferase substrate, Britelite Plus (PerkinElmer, Inc., Waltham, Mass., USA), was used for the readout. Non-linear fit of neutralization data was calculated using normalized values fitted to a one site inhibition curve with variable Hill slope. […]
Briefly, in a 96-well culture plate, 100 μL of previously diluted plasma samples were preincubated with 50 μL of pseudovirus stock, using 200 TCID50 at 37° C. for one hour. […] A luciferase substrate, Britelite Plus (PerkinElmer, Inc., Waltham, Mass., USA), was used for the readout. Non-linear fit of neutralization data was calculated using normalized values fitted to a one site inhibition curve with variable Hill slope. […]

[1] = test system: panel of HIV subtype B viruses; test: Neutralization assay against panel of HIV subtype B viruses (SVBP isolates); format: cell-based, HIV-1
Procedure: HIV-1 isolates NL4-3, BaL, AC10, SVBP6, SVBP8, SVBP11, SVBP12, SVBP14, SVBP15, SVBP17, SVBP18 and SVBP19 were generated as pseudoviruses using Env expression plasmids and the pSG3 vector. […] Cell-free virus neutralization by the antibody derivatives was tested by a standard TZM-bl based assay. […] Briefly, in a 96-well culture plate, 100 of previously diluted antibody derivatives were preincubated with 50 μL of pseudovirus stock, using 200 TCID50 (tissue culture infectious doses) at 37° C. for one hour. Then, 100 containing 10,000 TZM-bl luciferase-reporter target cells per well were added. Plates were cultured at 37° C. and 5% CO2 for 48 hours. Serial dilutions of the antibody derivatives were tested, from 1000 to 0.1 ng/mL. TZM-bl reporter cells were treated with dextran (Sigma-Aldrich, Saint Louis, Mo., USA) to enhance infectivity. A luciferase substrate, Britelite Plus (PerkinElmer, Inc., Waltham, Mass., USA), was used for the readout. Non-linear fit of neutralization data was calculated using normalized values fitted to a one site inhibition curve with variable Hill slope. All statistical analyses and non-linear fitting were performed using the GraphPad Prism v5.0 software. […]

Substance: MOLECULE-0: CD4-IgG1 fusion protein, SEQ ID NO:11
- blocking the infectivity of BaL (in words) (HIV-1 strain BaL): lower neutralizing activity
- blocking the infectivity of NL4-3 (in words) (HIV-1 strain NL4-3): lower neutralizing activity
- neutralization of panel of HIV subtype B isolates (in words) [1]: unable to neutralize primary isolates at 100 ng/mL
